Among the data in ChEMBL document CHEMBL3639112, “Modulators of calcium release-activated calcium channel and methods for treatment of non-small cell lung cancer” (2015) are IC50 values, retold here.

The target of the assay is Calcium release-activated calcium channel protein 1 (Homo sapiens, UniProt Q96D31). The assay is described as follows: Inhibition Assay: Inhibition of CRAC channels was determined following thapsigargin (Sigma, Cat # T9033) induced endoplasmic calcium release in Jurkat cells. (see Yasurio Yonetoky et. al Bio. & Med. Chem. 14 (2006) 4750-4760). Cells were centrifuged and resuspended in equal volumes f Ca2+ and Mg2+ free Hanks buffer and Fluo-8 NW dye (ABD Bioquest, Inc., Sunnyvale, Calif.) loading solution at 2x10^5 cells/100 ul/well in 96-well black plate. Plate is incubated at 37 C./5% CO2 […] followed by further […] at room temperature. Test compounds (DMSO stocks diluted in Ca2+ and Mg2+ free Hanks buffer) at desired concentrations were added to the wells and […]. Thapsigargin (1 uM final concentration) was added to the wells and incubated for 15 min to inhibit the Sarco-endoplasmic reticulum Ca2+ ATPase pump thereby depleting endoplasmic calcium and raising cytosolic calcium concentrations. Store-operated calcium entry was initiated by adding extracellular Ca2+. Type of assay: cell-based.
Chain of Calcium release-activated calcium channel protein 1 (Q96D31 whole entry): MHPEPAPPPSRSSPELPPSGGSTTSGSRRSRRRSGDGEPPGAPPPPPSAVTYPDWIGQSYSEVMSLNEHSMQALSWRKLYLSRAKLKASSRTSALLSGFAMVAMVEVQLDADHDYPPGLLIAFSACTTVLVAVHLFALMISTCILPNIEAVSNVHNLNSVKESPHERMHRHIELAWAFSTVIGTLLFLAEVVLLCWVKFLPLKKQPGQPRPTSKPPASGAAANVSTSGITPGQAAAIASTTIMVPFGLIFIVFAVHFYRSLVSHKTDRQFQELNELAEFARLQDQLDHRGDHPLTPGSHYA

Take `O=C(Cc1ccc2ncccc2c1)Nc1ccc(-n2nc(C3CC3)cc2C2CC2)cc1`: the IC50 – broadly, the concentration needed to halve the response being measured – worked out at 0.147 µM. On to `O=C(Nc1ccc(-n2nc(C(F)(F)F)cc2C2CC2)cc1)c1ccc2ncccc2c1`, for which the concentration for half-maximal inhibition (IC50) was found to be 0.0861 µM.
